Experimental data reported in patent US20060111305A1, “Metabolites of certain [1,4]diazepino[6,7,1-ij]quinoline derivatives and methods of preparation and use thereof” (Wyeth, priority 2004, published 2006).

Columns and labels:
[1] = Metabolites of DCDQ generated by liver microsomes and hepatocytes, LC/MS characterization (Table 6); type: in vitro ADME; conditions: MM mouse, RM rat, DM dog, HM human liver microsomes; HH human hepatocytes
Text: An Agilent Model 1100 HPLC system (Agilent Technologies, Palo Alto, Calif.) including an autosampler and diode array UV detector was used for LC/MS analysis. The UV detector was set to monitor 200 to 400 nm. For selected LC/MS analysis, radiochromatograms were acquired using a β-Ram model 3 radioactivity flow detector (IN/US Systems Inc., Tampa, Fla.) equipped with a solid scintillant flow cell. Separations were accomplished on a Phenomenex Luna C18(2) column (2×150 mm, 5 μm) under the same conditions as described above.
The mass spectrometer used for metabolite characterization was a Micromass Q-TOF-2 quadrupole time-of-flight hybrid mass spectrometer ([…].). The mass spectrometer was equipped with an electrospray ionization (ESI) interface and operated in the positive ionization mode. Collision energy settings of 5 and 30 eV were used for full MS and MS/MS scans, respectively. Settings for the mass spectrometer are listed below.
Mass spectra were obtained by LC/MS and LC/MS/MS analysis for DCDQ and its metabolites.

[2] = Metabolite profiles of DCDQ in human plasma and urine by LC/MS (Table 33); type: in vivo, healthy human subjects; conditions: human plasma and urine, healthy subjects receiving DCDQ
Experimental: Drug administration and specimen collection were performed in a randomized, double-blinded, placebo-controlled, ascending single dose study of the safety, tolerability, pharmacokinetics, and pharmacodynamics of DCDQ administered orally to healthy subjects and subjects with schizophrenia and schizoaffective disorder. The specimens were stored at approximately −70° C. until analysis for metabolite profiles and for ratios of carbamoyl glucuronide (M6) to DCDQ.
Two subjects with medium and high exposure to DCDQ in the 25 mg multiple ascending dose study were also analyzed by LC/MS for metabolite profiles. The 8 hr plasma samples collected on day 1 and day 14 from subjects 9 and 41 were processed and analyzed as described below. No internal standard was added to the samples analyzed for metabolite profiles.
LC/MS System 1 was used for analysis of plasma and urine samples for metabolite characterization. The HPLC equipment used with this LC/MS System consisted of an Agilent Model 1100 HPLC system (Agilent Technologies, Palo Alto, Calif.) including an autosampler, binary pump and diode array UV detector. The UV detector was set to monitor 210 to 350 nm. The HPLC mobile phase consisted of 10 mM ammonium acetate, pH 4.5 (A) and methanol (B), and was delivered at 0.2 mL/min. The linear mobile phase gradient (HPLC Gradient 1) is shown below. During LC/MS sample analysis, up to 6 min of the initial flow was diverted away from the mass spectrometer prior to evaluation of metabolites.
The mass spectrometer used for metabolite characterization with LC/MS System 1 was a Finnigan LCQ-Deca ion trap mass spectrometer (Thermo Electron, San Jose, Calif.). This mass spectrometer was equipped with an electrospray ionization (ESI) interface and operated in the positive ionization mode. Settings for the LCQ mass spectrometer are listed below.
LC/MS System 2 was used to provide additional MS/MS data for characterization of DCDQ metabolites in urine. The HPLC equipment used with LC/MS System 2 consisted of a Waters model 2695 HPLC system (Waters Corp., Milford, Mass.). It was equipped with a built-in autosampler and a model 996 diode array UV detector. The UV detector was set to monitor 210-400 nm. The HPLC column, mobile phases, flow rate, diversion of flow away from the mass spectrometer and gradient were as described above for LC/MS System 1. The column temperature was 25° C.
The mass spectrometer used for metabolite characterization with LC/MS System 2 was a Micromass Quattro Micro triple quadrupole mass spectrometer (Waters Corp.). This mass spectrometer was equipped with an electrospray interface and operated in the positive ionization mode. Settings for this mass spectrometer are listed below.

[3] = test system: cryopreserved human hepatocytes; test: Incubation of [14C]DCDQ with cryopreserved human hepatocytes; type: in vitro ADME; conditions: 10 or 50 μM DCDQ, 4 hours
Experimental: Vials containing cryopreserved human hepatocytes were thawed in a 37° C. water bath with gentle shaking until the ice was almost melted. The vials were removed from the water bath and gentle shaking continued at room temperature for 30-60 seconds until completely thawed. The hepatocyte suspensions from each vial were immediately transferred to pre-cooled 50 mL beakers on ice. To each beaker, 12 mL of ice-cold hepatocyte suspension media was added dropwise over one minute, with occasional, gentle shaking by hand to prevent the cells from settling. The cell suspensions were transferred to a 15 mL tube and centrifuged at 100 g force for 3 min at 4° C. (Model T21 super centrifuge, Sorvall). The supernatant was discarded and the pellets were re-suspended in 4 mL of ice-cold hepatocyte culture media. The cell suspensions contained approximately 3.1×10^6 viable hepatocytes/mL. The average viability was 76.0% as determined using Trypan Blue exclusion and a hemacytometer.
The cell suspensions were distributed into 12-well plates at 1.0 mL per well. Incubations were performed using pooled hepatocytes from two donors. [^14C]DCDQ in water was added to the hepatocyte suspension at a final concentration of 10 or 50 μM. Incubations were carried out at 37° C. for 4 hours in an incubator supplied with 5% CO2. At the end of the incubation, the reaction was stopped by the addition of 200 μL cold methanol to each well. The content of each well was transferred to a 15 mL centrifuge tube and sonicated for 30 seconds. After vortex mixing with 6 mL methanol and then centrifugation, the supernatant was transferred to a clean tube and evaporated to about 0.5 mL in a TurboVap evaporator. The residue was analyzed by HPLC and LC/MS.
A Waters model 2690 HPLC system (Waters Corp., Milford, Mass.) with a built-in autosampler was used for analysis. […] A variable wavelength UV detector set to monitor 250 nm and Flo-One β Model A525 radioactivity flow detector (Perkin Elmer) with a 250 μL LQTR flow cell were used for data acquisition. […]

- Source [1]: MM, RM, DM, HM, HH
- Matrix (in which DCDQ / metabolite was characterized by LC/MS) [2]: P, U
- metabolite detected in human hepatocyte incubations [3]: observed
Compound: C1=NCCN2C[C@@H]3CCC[C@@H]3c3cccc1c32 [Metabolite P3, DCDQ imine]
